Laboratory results reported in patent US11046686B2, “Thiadiazole IRAK4 compounds” (Gilead Sciences, Inc., priority 2018, dated 2021).
Where two headings read alike, the source gives them in different places.

Tests used:
TNFα = experiment: IRAK4 Monocyte TNFα Cell Based Assay; design: species or system human; conditions: Homo sapiens, Monocyte, human monocytes
How it was run: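 Human monocytes (5,000/well) pretreated with compound 1 h at 37 °C (0.1% DMSO final), then stimulated with 50 pg/ml LPS for 4 h. Secreted TNFα measured by TR-FRET two-antibody detection after overnight incubation at room temperature; % control relative to unstimulated and LPS-stimulated wells.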

IRAK4 enzyme = IRAK4 enzyme (Homo sapiens (Human), UniProt Q9NWZ3); experiment: IRAK4 Biochemical Assay (TR-FRET, STK1 KinEASE)
How it was run: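 IRAK4 (0.75 nM) preincubated 15 min with compound and […] STK1 peptide, then started with 500 μM ATP in HEPES pH 7.0 buffer with MgCl2, DTT, BSA, NP-40; 120 min at room temperature.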

[1] = LPS stimulated, compounds 1-32, read-out: EC50 TNF
[2] = compounds 1-32, read-out: IC50 HTRF
[3] = second part of Table 2, compounds 33-343, unit inferred, read-out: EC50 MONO TNF HTRF

IRAK4 enzyme, sequence (Q9NWZ3 whole entry): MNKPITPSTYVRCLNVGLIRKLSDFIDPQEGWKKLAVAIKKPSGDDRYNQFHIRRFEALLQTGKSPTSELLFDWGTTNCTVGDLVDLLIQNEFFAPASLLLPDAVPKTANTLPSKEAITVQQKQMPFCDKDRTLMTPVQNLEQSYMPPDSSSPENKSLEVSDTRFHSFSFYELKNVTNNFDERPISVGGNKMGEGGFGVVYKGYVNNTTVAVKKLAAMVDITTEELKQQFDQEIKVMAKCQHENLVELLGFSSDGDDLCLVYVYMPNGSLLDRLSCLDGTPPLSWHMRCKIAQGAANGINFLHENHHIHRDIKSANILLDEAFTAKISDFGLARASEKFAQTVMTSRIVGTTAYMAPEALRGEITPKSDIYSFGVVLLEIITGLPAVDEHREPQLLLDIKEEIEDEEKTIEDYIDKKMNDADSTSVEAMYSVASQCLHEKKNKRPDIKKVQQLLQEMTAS

SMILES | EC50 (TNFα; [1]) | IC50 (IRAK4 enzyme; [2]) | EC50 (TNFα; [3]) | IC50 (IRAK4 enzyme)
CNc1cc(-c2ccc3cc(C#N)cnn23)ncc1-c1nnc([C@H]2CC[C@H](NC(C)=O)CC2)s1 [Example 22, N-((1r,4r)-4-(5-(6-(3-cyanopyrrolo[1,2-b]pyridazin-7-yl)-4-(methylamino)pyridin-3-yl)-1,3,4-thiadiazol-2-yl)cyclohexyl)acetamide] | 25 nM | < 1 nM | – | –
COC(=O)NC[C@H]1C[C@H](Nc2cc(-c3ccc4cc(C#N)cnn34)ncc2-c2nnc([C@H]3CC[C@H](NC(C)=O)CC3)s2)C1 [Example 23, methyl (((1R,3r)-3-((5-(5-((1r,4R)-4-acetamidocyclohexyl)-1,3,4-thiadiazol-2-yl)-2-(3-cyanopyrrolo[1,2-b]pyridazin-7-yl)pyridin-4-yl)amino)cyclobutyl)methyl)carbamate] | 6 nM | < 1 nM | – | –
Cc1nnc(-c2cnc(-c3ccc4cc(C#N)cnn34)cc2NC(C)C)s1 [Example 25, 7-(4-(isopropylamino)-5-(5-methyl-1,3,4-thiadiazol-2-yl)pyridin-2-yl)pyrrolo[1,2-b]pyridazine-3-carbonitrile] | 1460 nM | < 1 nM | – | –
CC(C)Nc1cc(-c2ccc3cc(C#N)cnn23)ncc1-c1nnc(CCN)s1 [Example 26, 7-(5-(5-(2-aminoethyl)-1,3,4-thiadiazol-2-yl)-4-(isopropylamino)pyridin-2-yl)pyrrolo[1,2-b]pyridazine-3-carbonitrile] | 305 nM | 1 nM | – | –
CC(C)Nc1cc(-c2ccc3cc(C#N)cnn23)ncc1-c1nnc(NC[C@@H](F)C(C)(C)O)s1 [Example 27, (R)-7-(5-(5-((2-fluoro-3-hydroxy-3-methylbutyl)amino)-1,3,4-thiadiazol-2-yl)-4-(isopropylamino)pyridin-2-yl)pyrrolo[1,2-b]pyridazine-3-carbonitrile] | 67 nM | 1 nM | – | –
CC(C)Nc1cc(-c2ccc3cc(C#N)cnn23)ncc1-c1nnc(-n2cccc2)s1 [Example 28, 7-(5-(5-(1H-pyrrol-1-yl)-1,3,4-thiadiazol-2-yl)-4-(isopropylamino)pyridin-2-yl)pyrrolo[1,2-b]pyridazine-3-carbonitrile] | 6340 nM | 1.7 nM | – | –
CC(C)Nc1cc(-c2ccc3cc(C#N)cnn23)ncc1-c1nncs1 [Example 30, 7-(4-(isopropylamino)-5-(1,3,4-thiadiazol-2-yl)pyridin-2-yl)pyrrolo[1,2-b]pyridazine-3-carbonitrile] | 78 nM | 1 nM | – | –
CC(C)Nc1cc(-c2ccc3cc(C#N)cnn23)ncc1-c1nnc(CCC(C)(C)O)s1 [Example 31, 7-(5-(5-(3-hydroxy-3-methylbutyl)-1,3,4-thiadiazol-2-yl)-4-(isopropylamino)pyridin-2-yl)pyrrolo[1,2-b]pyridazine-3-carbonitrile] | 5 nM | < 1 nM | – | –
CC(=O)NC1CN(c2nnc(-c3cnc(-c4ccc5cc(C#N)cnn45)cc3NC(C)C)s2)C1 [Example 33, N-(1-(5-(6-(3-cyanopyrrolo[1,2-b]pyridazin-7-yl)-4-(isopropylamino)pyridin-3-yl)-1,3,4-thiadiazol-2-yl)azetidin-3-yl)acetamide] | – | – | 3970 nM | 0.49 nM
CC(C)Nc1cc(-c2ccc3cc(C#N)cnn23)ncc1-c1nnc(N2CCN3CCOC[C@@H]3C2)s1 [Example 35, (S)-7-(5-(5-(hexahydropyrazino[2,1-c][1,4]oxazin-8(1H)-yl)-1,3,4-thiadiazol-2-yl)-4-(isopropylamino)pyridin-2-yl)pyrrolo[1,2-b]pyridazine-3-carbonitrile] | – | – | 78.2 nM | 0.87 nM
CC(C)Nc1cc(-c2ccc3cc(C#N)cnn23)ncc1-c1nnc(N2CCN3CCOC[C@H]3C2)s1 [Example 36, (R)-7-(5-(5-(hexahydropyrazino[2,1-c][1,4]oxazin-8(1H)-yl)-1,3,4-thiadiazol-2-yl)-4-(isopropylamino)pyridin-2-yl)pyrrolo[1,2-b]pyridazine-3-carbonitrile] | – | – | 5 nM | 0.48 nM
CC(C)Nc1cc(-c2ccc3cc(C#N)cnn23)ncc1-c1nnc(NCC(C)(C)O)s1 [Example 37, 7-(5-(5-((2-hydroxy-2-methylpropyl)amino)-1,3,4-thiadiazol-2-yl)-4-(isopropylamino)pyridin-2-yl)pyrrolo[1,2-b]pyridazine-3-carbonitrile] | – | – | 10000 nM | 1000 nM
CC(=O)N[C@@H]1CCN(C(=O)c2cnc(-c3cnc(-c4ccc5cc(C#N)cnn45)cc3NC(C)C)s2)C1 [Example 40, (R)-N-(1-(2-(6-(3-cyanopyrrolo[1,2-b]pyridazin-7-yl)-4-(isopropylamino)pyridin-3-yl)thiazole-5-carbonyl)pyrrolidin-3-yl)acetamide] | – | – | 87.6 nM | 3.09 nM
CC(=O)NC[C@@H]1CCCN1C(=O)c1nnc(-c2cnc(-c3ccc4cc(C#N)cnn34)cc2NC(C)C)s1 [Example 41, (S)-N-((1-(5-(6-(3-cyanopyrrolo[1,2-b]pyridazin-7-yl)-4-(isopropylamino)pyridin-3-yl)-1,3,4-thiadiazole-2-carbonyl)pyrrolidin-2-yl)methyl)acetamide] | – | – | 11.6 nM | 1.38 nM
COC(=O)N[C@@H]1CCN(C(=O)c2nnc(-c3cnc(-c4ccc5cc(C#N)cnn45)cc3NC(C)C)s2)C1 [Example 44, methyl (R)-(1-(5-(6-(3-cyanopyrrolo[1,2-b]pyridazin-7-yl)-4-(isopropylamino)pyridin-3-yl)-1,3,4-thiadiazole-2-carbonyl)pyrrolidin-3-yl)carbamate] | – | – | 27.4 nM | 0.53 nM
CC(C)Nc1cc(-c2ccc3cc(C#N)cnn23)ncc1-c1nnc(C(=O)N2CC[C@H](NC(=O)C3CC3)C2)s1 [Example 46, (S)-N-(1-(5-(6-(3-cyanopyrrolo[1,2-b]pyridazin-7-yl)-4-(isopropylamino)pyridin-3-yl)-1,3,4-thiadiazole-2-carbonyl)pyrrolidin-3-yl)cyclopropanecarboxamide] | – | – | 16.7 nM | 0.67 nM
CC(=O)N[C@H]1CCCN(C(=O)c2nnc(-c3cnc(-c4ccc5cc(C#N)cnn45)cc3NC(C)C)s2)C1 [Example 48, (S)-N-(1-(5-(6-(3-cyanopyrrolo[1,2-b]pyridazin-7-yl)-4-(isopropylamino)pyridin-3-yl)-1,3,4-thiadiazole-2-carbonyl)piperidin-3-yl)acetamide] | – | – | 37.5 nM | 1.91 nM
CC(=O)N[C@@H]1CCCN(C(=O)c2nnc(-c3cnc(-c4ccc5cc(C#N)cnn45)cc3NC(C)C)s2)C1 [Example 49, (R)-N-(1-(5-(6-(3-cyanopyrrolo[1,2-b]pyridazin-7-yl)-4-(isopropylamino)pyridin-3-yl)-1,3,4-thiadiazole-2-carbonyl)piperidin-3-yl)acetamide] | – | – | 34.3 nM | 1.75 nM
CC(=O)N[C@H]1CC[C@H](c2nnc(-c3cnc(-c4ccc5cnc(N[C@@H]6CCCC[C@@H]6N)nn45)cc3NC(C)C)s2)CC1 [Example 50, N-((1r,4r)-4-(5-(6-(2-(((1R,2S)-2-aminocyclohexyl)amino)pyrrolo[2,1-f][1,2,4]triazin-7-yl)-4-(isopropylamino)pyridin-3-yl)-1,3,4-thiadiazol-2-yl)cyclohexyl)acetamide] | – | – | 3.6 nM | 0.92 nM
